Earlier results on 53 compounds are cited in patent US9801371B2, “Self-assembling polymer particle release system” (priority 2010, dated 2017).

The conditions of one series: Table 26, USDA Pesticide Properties Database; cited from earlier work.
As for `CNC(=O)N(C)c1nnc(C(C)(C)C)s1` [Tebuthiuron], the KOC is 80 mg/g. Regarding `CCOP(=S)(OCC)Oc1cc(C)nc(C(C)C)n1` [Diazinon], the KOC is given as 1000 mg/g. In the case of `CCOP(=S)(OCC)Oc1nc(Cl)c(Cl)cc1Cl` [Chlorpyrifos], the KOC is recorded as 6,000 mg/g.

As for `C[n+]1ccc(-c2cc[n+](C)cc2)cc1` [Paraquat], the KOC was 1,000,000 mg/g. Take `CCOP(=S)(OCC)SCSC(C)(C)C` [Terbufos]: the KOC is 500 mg/g.

Still in this series, the particulars now being: Tables 21-25; cited from earlier work.
As for `CC1CCCCC1NC(=O)Nc1ccccc1` (centres unmarked) [Siduron], the KOC was 420.

Regarding `CCCC1COC(Cn2cncn2)(c2ccc(Cl)cc2Cl)O1` (centres unmarked) [Propiconazole], the KOC is given as 1086.

As for `CN(C)C(=O)Nc1cccc(C(F)(F)F)c1` [Fluometuron], the KOC is 67.4. As for `O=C(NC(=O)c1c(F)cccc1F)Nc1cc(Cl)c(OC(F)(F)C(F)C(F)(F)F)cc1Cl` (centres unmarked) [Lufenuron], the KOC is on record as 41182. With `CC(C)(C)C(O)C(Oc1ccc(Cl)cc1)n1cncn1` (centres unmarked) [Triadimenol], the KOC is listed as 273.

Take `COP(=S)(OC)SCn1nnc2ccccc2c1=O` [Azinphosmethyl]: the KOC was 1000. For the compound `Cc1ccn2nc(S(=O)(=O)Nc3c(F)cccc3F)nc2n1` [Flumetsulam], the KOC is given as 28. As for `CCOP(=S)(OCC)SCSCC` [Phorate], the KOC is 1660.

Take `CCOP(=S)(OCC)OC(Cl)C(Cl)(Cl)Cl` (centres unmarked) [Chlorethoxyfos]: the KOC is reported as 6100.

As to `COC(=O)c1cccc(C)c1S(=O)(=O)NC(=O)Nc1nc(OCC(F)(F)F)nc(N(C)C)n1` [Triflusulfuron-Methyl], the KOC is 40. As for `CCOC(=O)c1ccccc1S(=O)(=O)NC(=O)Nc1nc(Cl)cc(OC)n1` [Chlorimuron-Ethyl], the KOC is 106. Consider `CC(C)c1ccc(NC(=O)N(C)C)cc1` [Isoproturon], for which the KOC was 122. Consider `COc1nc(NC(C)C)nc(NC(C)C)n1` [Prometon], for which the KOC is reported as 150.

Regarding `COc1cc(OC)nc(NC(=O)NS(=O)(=O)c2ncccc2C(=O)N(C)C)n1` [Nicosulfuron], the KOC is 21.

`Cc1nn(-c2cc(NS(C)(=O)=O)c(Cl)cc2Cl)c(=O)n1C(F)F` [Sulfentrazone]: the KOC is 43. Consider `Clc1nc(Cl)nc(Nc2ccccc2Cl)n1` [Anilazine], for which the KOC was 2000.

Consider `CCNc1nc(Cl)nc(NC(C)C)n1` [Atrazine], for which the KOC is 100. For the compound `CCOP(=S)(OCC)Oc1nc(Cl)n(C(C)C)n1` [Isazofos], the KOC is recorded as 155. `CC(C)Nc1nc(Cl)nc(NC(C)C)n1` [Propazine]: the KOC is reported as 154. As to `CCNc1nc(NC(C)(C)C)nc(SC)n1` [Terbutryn], the KOC is recorded as 2000. As to `CCOP(=S)(OCC)SCCSCC` [Disulfuton], the KOC is on record as 13454.

With `CCNc1nc(Cl)nc(NCC)n1` [Simazine], the KOC is recorded as 130. As for `O=C(Nc1ccccc1)Nc1cnns1` [Thidiazuron], the KOC is 742. In the case of `CCNc1nc(NC(C)C)nc(SC)n1` [Ametryn], the KOC is 316. Regarding `COC(=O)c1ccccc1S(=O)(=O)NC(=O)Nc1nc(C)cc(C)n1` [Sulfometuron-Methyl], the KOC is listed as 85.

Turning to `Nc1c(Cl)c(Cl)nc(C(=O)O)c1Cl` [Picloram], the KOC was 35. For the compound `O=C(Nc1nc(OC(F)F)cc(OC(F)F)n1)NS(=O)(=O)c1ccccc1C(=O)O` [Primisulfuron], the KOC was 50.

On to `CN(C)C(=O)Nc1ccc(Cl)cc1` [Monuron], for which the KOC was 150. `CCCOP(=S)(OCCC)SCC(=O)N1CCCCC1C` (centres unmarked) [Piperophos]: the KOC is reported as 5202. With `COc1nc(C)nc(NC(=O)NS(=O)(=O)c2ccccc2Cl)n1` [Chlorsulfuron], the KOC is listed as 36.3. For the compound `CCc1cnc(C2=NC(C)(C(C)C)C(=O)N2)c(C(=O)O)c1` (centres unmarked) [Imazethapyr], the KOC is reported as 52.

For `CNC(=O)CSP(=S)(OC)OC` [Dimethonate], the KOC was 30. For `CN(C)c1nc(=O)n(C2CCCCC2)c(=O)n1C` [Hezazinone], the KOC is reported as 54. As for `CSc1nc(NC(C)C)nc(NC(C)C)n1` [Prometryn], the KOC is reported as 400. On to `COC(=O)c1ccccc1S(=O)(=O)NC(=O)N(C)c1nc(C)nc(OC)n1` [Tribenuron-Methyl], for which the KOC is reported as 31. Regarding `CS(=O)(=O)NC(=O)c1cc(Oc2ccc(C(F)(F)F)cc2Cl)ccc1[N+](=O)[O-]` [Fomesafen], the KOC is given as 50. In the case of `O=C(O)Cc1cccc2ccccc12` [1-Napthylacetic Acid], the KOC is 385.

In the case of `COP(=S)(OC)Oc1ccc(SC)c(C)c1` [Fenthion], the KOC is given as 1500. In the case of `O=C(O)c1c(Cl)ccc2cc(Cl)cnc12` [Quinclorac], the KOC is recorded as 50.

Take `CCNc1nc(Cl)nc(NC(C)(C)C#N)n1` [Cyanazine]: the KOC is recorded as 190. For the compound `CCOP(=S)(OCC)Oc1ccc([N+](=O)[O-])cc1` [Parathion], the KOC is 7660. With `CCS(=O)(=O)c1cccnc1S(=O)(=O)NC(=O)Nc1nc(OC)cc(OC)n1` [Rimsulfuron], the KOC is reported as 47.

In the case of `COP(=S)(OC)Oc1cc(Cl)c(I)cc1Cl` [Iodufenphos], the KOC is recorded as 50000.

In the case of `COP(=O)(OC)O/C(C)=C/C(=O)N(C)C` [Dicrotophos], the KOC is given as 75. `CCCSP(=O)(OCC)Oc1ccc(Br)cc1Cl` (centres unmarked) [Profenofos]: the KOC was 2016. In the case of `CC(C)C1(C)N=C(c2nc3ccccc3cc2C(=O)O)NC1=O` (centres unmarked) [Imazaquin], the KOC is reported as 18. As to `Cc1cccc2sc3nncn3c12` [Tricyclazole], the KOC is 169. In the case of `CN(C)C(=O)Nc1ccc(Cl)c(Cl)c1` [Diuron], the KOC is 1067.
